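How tested: cells in 96-well plates exposed to compound for 48 hours at five concentrations. TGI denotes the concentration required for complete inhibition of growth.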
Key:
Assay in all cases: DTP human tumour cell line panel, 48 h
COLO 205 colon = tested on: COLO 205 colon
SN12C renal = tested on: SN12C renal
HS 578T breast = tested on: HS 578T breast
A549 NSCLC = tested on: A549 NSCLC
K-562 leukemia = tested on: K-562 leukemia
CCRF-CEM leukemia = tested on: CCRF-CEM leukemia
MDA-MB-435 = tested on: MDA-MB-435
SF-268 CNS = tested on: SF-268 CNS
786-0 renal = tested on: 786-0 renal
IGROV1 ovarian = tested on: IGROV1 ovarian
SK-MEL-2 melanoma = tested on: SK-MEL-2 melanoma
CAKI-1 renal = tested on: CAKI-1 renal
NCI-H23 lung = tested on: NCI-H23 lung
SK-OV-3 ovarian = tested on: SK-OV-3 ovarian
EKVX NSCLC = tested on: EKVX NSCLC
OVCAR-8 ovarian = tested on: OVCAR-8 ovarian
MOLT-4 leukemia = tested on: MOLT-4 leukemia
RPMI-8226 leukemia = tested on: RPMI-8226 leukemia
SR leukemia = tested on: SR leukemia
MDA-N = tested on: MDA-N

Structure (SMILES) | TGI (COLO 205 colon) [µM] | TGI (SN12C renal) [µM] | TGI (HS 578T breast) [µM] | TGI (A549 NSCLC) [µM] | TGI (K-562 leukemia) [µM] | TGI (CCRF-CEM leukemia) [µM] | TGI (MDA-MB-435) [µM] | TGI (SF-268 CNS) [µM] | TGI (786-0 renal) [µM] | TGI (IGROV1 ovarian) [µM] | TGI (SK-MEL-2 melanoma) [µM] | TGI (CAKI-1 renal) [µM] | TGI (NCI-H23 lung) [µM] | TGI (SK-OV-3 ovarian) [µM] | TGI (EKVX NSCLC) [µM] | TGI (OVCAR-8 ovarian) [µM] | TGI (MOLT-4 leukemia) [µM] | TGI (RPMI-8226 leukemia) [µM] | TGI (SR leukemia) [µM] | TGI (MDA-N) [µM]
N#CC1C(=O)NC2=C(CCOc3c2ccc2ccccc32)C1c1ccc(F)cc1 (stereo not given) | > 100 | 27.3 | 43.8 | > 100 | > 100 | > 100 | > 100 | 88.8 | 32.8 | 37.9 | > 100 | 71.4 | 74 | 55 | > 100 | > 100 | > 100 | – | – | –
COc1cc2c(cc1OC)C1(c3ccccc3)ON=C(c3ccccc3)N1CS2 (stereo not given) | > 100 | > 100 | – | > 100 | > 100 | > 100 | – | > 100 | > 100 | > 100 | > 100 | > 100 | > 100 | > 100 | > 100 | – | > 100 | > 100 | > 100 | –
O=C(Nc1ccc(N2C(=O)CSC2c2cccs2)cc1)c1ccc(N2C(=O)CSC2c2cccs2)cc1 (stereo not given) | > 100 | > 100 | > 100 | > 100 | > 100 | > 100 | > 100 | > 100 | > 100 | > 100 | > 100 | > 100 | 96.4 | > 100 | > 100 | > 100 | > 100 | – | – | > 100
CSC1CC2C(CC1(C)SC)C2(C)C (stereo not given) | > 100 | – | – | > 100 | 81.8 | 84.2 | – | > 100 | > 100 | > 100 | 56.8 | > 100 | > 100 | > 100 | > 100 | > 100 | > 100 | 93.4 | > 100 | –
COC(=O)C1=C(OC(=O)/C(=C/c2c(F)cccc2F)c2ccccc2)C(C(=O)OC)[C@@]2(O)[C@@H](C(=O)OC)[C@H](C)C[C@@H]1[C@@H]2C(=O)OC (stereo not given in full) | > 100 | > 100 | – | > 100 | > 100 | > 100 | > 100 | > 100 | > 100 | > 100 | > 100 | > 100 | > 100 | > 100 | > 100 | > 100 | > 100 | – | – | –
CC1=C2c3ccccc3N(S(=O)(=O)c3ccccc3)[C@H]2[C@H](C(=O)N2C3CC4CC[C@@]3(CS2(=O)=O)C4(C)C)CC1 (stereo not given in full) | > 100 | > 100 | > 100 | > 100 | > 100 | > 100 | > 100 | > 100 | > 100 | > 100 | – | > 100 | > 100 | > 100 | > 100 | > 100 | 75.9 | 7.05 | > 100 | –
CCCCC1=CC1(C#N)[N+](=O)[O-] (stereo not given) | > 100 | > 100 | > 100 | > 100 | 66.6 | 63.6 | > 100 | > 100 | > 100 | > 100 | – | > 100 | > 100 | > 100 | > 100 | > 100 | 67.5 | > 100 | > 100 | –
CCC(C)C(NC(=O)c1c2ccccc2nc2ccccc12)C(=O)O (stereo not given) | > 100 | > 100 | – | > 100 | > 100 | > 100 | > 100 | > 100 | > 100 | > 100 | > 100 | > 100 | > 100 | > 100 | > 100 | > 100 | > 100 | > 100 | > 100 | –
CC1=C(c2ccc(C)cc2)NC(=S)C(C)C(c2ccc(C)cc2)=N1 (stereo not given) | > 100 | > 100 | – | > 100 | > 100 | > 100 | > 100 | > 100 | > 100 | > 100 | – | > 100 | > 100 | > 100 | > 100 | > 100 | > 100 | > 100 | – | > 100
N#Cc1nc(NC(=O)c2ccccc2)sc1N | > 10 | > 10 | – | > 10 | > 10 | > 10 | > 10 | > 10 | > 10 | > 10 | > 10 | > 10 | > 10 | > 10 | > 10 | > 10 | > 10 | > 10 | > 10 | > 10
Cc1ccc(-c2n[nH]c(=O)n2N2C(=O)C=CC2=O)cc1 | > 100 | > 100 | > 100 | > 100 | > 100 | > 100 | > 100 | > 100 | > 100 | > 100 | > 100 | > 100 | > 100 | > 100 | > 100 | > 100 | > 100 | – | > 100 | –
COc1cc(/C=C2/C(=O)N=C(NC(C)=O)N2C)ccc1OC(C)=O | > 100 | > 100 | – | > 100 | – | – | > 100 | – | > 100 | > 100 | > 100 | > 100 | > 100 | > 100 | > 100 | > 100 | > 100 | – | – | > 100
Cc1ccc(C(O)/C(=N/N)c2nc3ccc([N+](=O)[O-])cc3[nH]c2=O)cc1 (stereo not given) | > 100 | > 100 | – | > 100 | > 100 | > 100 | – | > 100 | > 100 | > 100 | > 100 | – | > 100 | > 100 | – | > 100 | > 100 | > 100 | > 100 | –
